Target: T1, Adrenergic receptor alpha-2 (Rattus norvegicus, UniProt P22086+P19328+P22909)
T1 sequence (P22086 whole entry): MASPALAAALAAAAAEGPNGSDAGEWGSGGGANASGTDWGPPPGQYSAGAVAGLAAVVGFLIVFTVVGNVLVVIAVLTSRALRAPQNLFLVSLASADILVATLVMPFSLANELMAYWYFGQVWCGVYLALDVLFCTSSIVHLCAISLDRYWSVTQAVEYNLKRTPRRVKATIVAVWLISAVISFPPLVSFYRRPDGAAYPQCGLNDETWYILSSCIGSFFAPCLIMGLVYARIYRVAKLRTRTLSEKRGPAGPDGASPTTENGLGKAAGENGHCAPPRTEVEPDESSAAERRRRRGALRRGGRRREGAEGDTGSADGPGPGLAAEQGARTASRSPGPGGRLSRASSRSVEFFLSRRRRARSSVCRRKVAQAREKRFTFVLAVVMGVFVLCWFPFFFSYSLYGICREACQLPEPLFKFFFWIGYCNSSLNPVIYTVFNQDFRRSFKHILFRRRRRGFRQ
T1 sequence (P19328 whole entry): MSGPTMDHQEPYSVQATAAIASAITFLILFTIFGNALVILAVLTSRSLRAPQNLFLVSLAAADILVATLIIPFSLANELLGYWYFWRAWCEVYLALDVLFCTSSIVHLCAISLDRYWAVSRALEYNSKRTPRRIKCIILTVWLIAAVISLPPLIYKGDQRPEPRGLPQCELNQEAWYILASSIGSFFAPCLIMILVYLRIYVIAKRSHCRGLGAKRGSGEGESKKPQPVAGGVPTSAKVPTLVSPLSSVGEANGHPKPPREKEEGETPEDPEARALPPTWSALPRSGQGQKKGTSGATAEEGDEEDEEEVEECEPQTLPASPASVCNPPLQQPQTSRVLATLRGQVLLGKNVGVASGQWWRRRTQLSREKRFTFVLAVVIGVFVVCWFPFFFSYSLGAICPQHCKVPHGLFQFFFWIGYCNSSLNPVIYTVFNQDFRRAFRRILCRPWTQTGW
T1 sequence (P22909 whole entry): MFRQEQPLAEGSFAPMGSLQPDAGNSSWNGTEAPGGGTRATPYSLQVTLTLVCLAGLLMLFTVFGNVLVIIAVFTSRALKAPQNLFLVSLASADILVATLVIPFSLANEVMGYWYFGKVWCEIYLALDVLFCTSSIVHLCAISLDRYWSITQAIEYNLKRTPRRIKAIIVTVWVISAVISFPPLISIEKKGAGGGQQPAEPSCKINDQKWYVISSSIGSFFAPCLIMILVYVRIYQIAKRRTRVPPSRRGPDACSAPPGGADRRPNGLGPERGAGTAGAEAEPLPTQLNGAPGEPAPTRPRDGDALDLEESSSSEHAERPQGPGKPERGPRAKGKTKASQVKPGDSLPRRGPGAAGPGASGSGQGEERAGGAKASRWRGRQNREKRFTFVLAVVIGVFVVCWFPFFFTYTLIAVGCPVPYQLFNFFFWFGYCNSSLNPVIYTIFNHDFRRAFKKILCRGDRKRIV
Assay: Displacement of [3H]clonidine from Sprague-Dawley rat cortex adrenergic alpha 2 receptor

**Q.** With `CCCS(=O)(=O)c1ccc2c(c1)CNC(CF)C2` (stereo not given) as the compound, how does the Ki read?
**A.** 690 µM

**Q.** With `COCCCS(=O)(=O)c1ccc2c(c1)CNC(CF)C2` (stereo not given) as the compound, how does the Ki read?
**A.** 1200 µM

**Q.** For `O=S(=O)(CC(F)(F)F)c1ccc2c(c1)CNC(CF)C2` (stereo not given), which Ki is on record?
**A.** 740 µM

**Q.** For `CCCCS(=O)(=O)c1ccc2c(c1)CNC(CF)C2` (stereo not given), which Ki is on record?
**A.** 540 µM

**Q.** For `O=S(=O)(CCC(F)(F)F)c1ccc2c(c1)CNC(CF)C2` (stereo not given), which Ki is on record?
**A.** > 1000 µM

**Q.** Which Ki does the source give for `O=S(=O)(CCCC(F)(F)F)c1ccc2c(c1)CNC(CF)C2` (stereo not given) here?
**A.** > 1000 µM

**Q.** With `O=S(=O)(Cc1ccc(Cl)cc1)c1ccc2c(c1)CNC(CF)C2` (stereo not given) as the compound, how does the Ki read?
**A.** > 1000 µM

**Q.** With `CCS(=O)(=O)c1ccc2c(c1)CNC(CF)C2` (stereo not given) as the compound, how does the Ki read?
**A.** 1100 µM

Tested on: not listed separately
Assay: Selectivity for human PNMT over rat Adrenergic alpha-2 receptor

**Q.** Which Selectivity ratio does the source give for `c1ccc2c(c1)CCNC2` [1,2,3,4-TETRAHYDROISOQUINOLINE] here?
**A.** 0.06

Target: T2, Phenylethanolamine N-methyltransferase (Homo sapiens, UniProt P11086)
T2 sequence (P11086 whole entry): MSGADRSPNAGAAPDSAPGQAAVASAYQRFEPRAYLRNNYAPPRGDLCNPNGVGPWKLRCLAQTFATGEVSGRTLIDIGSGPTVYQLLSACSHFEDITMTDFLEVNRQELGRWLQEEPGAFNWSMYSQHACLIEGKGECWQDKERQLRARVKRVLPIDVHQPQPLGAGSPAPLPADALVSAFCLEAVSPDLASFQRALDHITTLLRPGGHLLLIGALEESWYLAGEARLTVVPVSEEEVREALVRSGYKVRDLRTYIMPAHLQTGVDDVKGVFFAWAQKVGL
Assay: Binding affinity to human PNMT expressed in Escherichia coli by radiochemical assay

**Q.** Which Ki does the source give for `c1ccc2c(c1)CCNC2` [1,2,3,4-TETRAHYDROISOQUINOLINE] here?
**A.** 5.8 µM
